Results as given in ChEMBL document CHEMBL3885861, “Open TG-GATES”.

Organism: Rattus norvegicus
Assay: Open TG-GATES - Regimen: Daily Repeat
Assay type: toxicity, organism-based, Sprague-Dawley
Design: regimen Daily Repeat, gender Male, age 6 weeks
Details: in vivo, po, route gavage; for APTT / Bas / Eos / Fbg / Hb / Ht / Lym / MCH / MCHC / MCV / Mono / Neu / PT / Plat / RBC / Ret / WBC: tissue Blood; for KIDNEY_L / KIDNEY_R / KIDNEY_TOTAL: tissue Kidney; for LIVER: tissue Liver; for A/G / ALP / ALT / AST / BUN / CRE / Ca / Cl / DBIL / GLC / IP / K / LDH / Na / PL / RALB / TBIL / TC / TG / TP / gamma-GTP: tissue Plasma
[1] = 120 mg/kg, 72 h, dose level Middle, time 3 day
[2] = 120 mg/kg, […], dose level Middle, time 7 day
[3] = 120 mg/kg, […], dose level Middle, time 14 day
[4] = 120 mg/kg, […], dose level Middle, time 28 day
[5] = 400 mg/kg, 72 h, dose level High, time 3 day
[6] = 400 mg/kg, […], dose level High, time 7 day
[7] = 400 mg/kg, […], dose level High, time 14 day
[8] = 400 mg/kg, […], dose level High, time 28 day

Cc1cccc(C)c1OCC(C)N (centres undefined) [MEXILETINE]
TERMINAL_BW [1]: 236.3 g
APTT [1]: 21.8 s
Bas [1]: 0%
Eos [1]: 0.8%
Fbg [1]: 325.2 mg/dL
Hb [1]: 12.9 g/dL
Ht [1]: 40.1%
Lym [1]: 74%
MCH [1]: 19.7 pg
MCHC [1]: 32.3%
MCV [1]: 61.1 fL
Mono [1]: 2.6%
Neu [1]: 21.6%
PT [1]: 15.3 s
Plat [1]: 115.5 x10_4/uL
RBC [1]: 656.6 x10_4/ul
Ret [1]: 6.1%
WBC [1]: 96.8 x10_2/uL
KIDNEY_L [1]: 1 g
KIDNEY_R [1]: 1 g
KIDNEY_TOTAL [1]: 2 g
LIVER [1]: 11.5 g
A/G [1]: 1.3
ALP [1]: 1686.2 IU/L
ALT [1]: 48.6 IU/L
AST [1]: 73.4 IU/L
BUN [1]: 16.6 mg/dL
CRE [1]: 0.1 mg/dL
Ca [1]: 10.8 mg/dL
Cl [1]: 106.2 meq/L
DBIL [1]: 0 mg/dL
GLC [1]: 197 mg/dL
IP [1]: 8 mg/dL
K [1]: 4.3 meq/L
LDH [1]: 181.2 IU/L
Na [1]: 141.6 meq/L
PL [1]: 168 mg/dL
RALB [1]: 3.2 g/dL
TBIL [1]: 0.002 mg/dL
TC [1]: 91.2 mg/dL
TG [1]: 150.2 mg/dL
TP [1]: 5.7 g/dL
gamma-GTP [1]: 1.8 IU/L
TERMINAL_BW [2]: 275.9 g
TERMINAL_BW [3]: 328.1 g
TERMINAL_BW [4]: 389.9 g
APTT [2]: 22.2 s
Bas [2]: 0%
Eos [2]: 0.8%
Fbg [2]: 321.2 mg/dL
Hb [2]: 13.1 g/dL
Ht [2]: 40.4%
Lym [2]: 77.8%
MCH [2]: 20.5 pg
MCHC [2]: 32.4%
MCV [2]: 63.3 fL
Mono [2]: 2.4%
Neu [2]: 18.4%
PT [2]: 15.6 s
Plat [2]: 105.3 x10_4/uL
RBC [2]: 638 x10_4/ul
Ret [2]: 6.2%
WBC [2]: 107.1 x10_2/uL
APTT [3]: 21.8 s
Bas [3]: 0%
Eos [3]: 0.4%
Fbg [3]: 310.2 mg/dL
Hb [3]: 13.1 g/dL
Ht [3]: 40.6%
Lym [3]: 83.2%
MCH [3]: 20.1 pg
MCHC [3]: 32.2%
MCV [3]: 62.6 fL
Mono [3]: 2%
Neu [3]: 13.6%
PT [3]: 15.9 s
Plat [3]: 113.4 x10_4/uL
RBC [3]: 648.8 x10_4/ul
Ret [3]: 7.3%
WBC [3]: 96 x10_2/uL
APTT [4]: 23.8 s
Bas [4]: 0%
Eos [4]: 1.8%
Fbg [4]: 328.2 mg/dL
Hb [4]: 15.1 g/dL
Ht [4]: 44%
Lym [4]: 74%
MCH [4]: 19.4 pg
MCHC [4]: 34.4%
MCV [4]: 56.6 fL
Mono [4]: 2.4%
Neu [4]: 21.2%
PT [4]: 15.6 s
Plat [4]: 94.2 x10_4/uL
RBC [4]: 777 x10_4/ul
Ret [4]: 3.1%
WBC [4]: 93 x10_2/uL
KIDNEY_L [2]: 1.1 g
KIDNEY_R [2]: 1.1 g
KIDNEY_TOTAL [2]: 2.2 g
KIDNEY_L [3]: 1.3 g
KIDNEY_R [3]: 1.3 g
KIDNEY_TOTAL [3]: 2.6 g
KIDNEY_L [4]: 1.5 g
KIDNEY_R [4]: 1.5 g
KIDNEY_TOTAL [4]: 2.9 g
LIVER [2]: 13.2 g
LIVER [3]: 14.8 g
LIVER [4]: 16.8 g
A/G [2]: 1.2
ALP [2]: 1567.6 IU/L
ALT [2]: 45 IU/L
AST [2]: 69.8 IU/L
BUN [2]: 18.4 mg/dL
CRE [2]: 0.1 mg/dL
Ca [2]: 11 mg/dL
Cl [2]: 104.8 meq/L
DBIL [2]: 0 mg/dL
GLC [2]: 188.6 mg/dL
IP [2]: 7.8 mg/dL
K [2]: 4.2 meq/L
LDH [2]: 145.6 IU/L
Na [2]: 142 meq/L
PL [2]: 163.2 mg/dL
RALB [2]: 3 g/dL
TBIL [2]: 0.004 mg/dL
TC [2]: 81.2 mg/dL
TG [2]: 148 mg/dL
TP [2]: 5.6 g/dL
gamma-GTP [2]: 1.6 IU/L
A/G [3]: 1.1
ALP [3]: 1443.2 IU/L
ALT [3]: 43.2 IU/L
AST [3]: 74.6 IU/L
BUN [3]: 19.4 mg/dL
CRE [3]: 0.2 mg/dL
Ca [3]: 10.5 mg/dL
Cl [3]: 107.2 meq/L
DBIL [3]: 0 mg/dL
GLC [3]: 190.6 mg/dL
IP [3]: 6.5 mg/dL
K [3]: 4.4 meq/L
LDH [3]: 157.8 IU/L
Na [3]: 140.6 meq/L
PL [3]: 160 mg/dL
RALB [3]: 2.9 g/dL
TBIL [3]: 0.002 mg/dL
TC [3]: 80.8 mg/dL
TG [3]: 155.6 mg/dL
TP [3]: 5.7 g/dL
gamma-GTP [3]: 2.2 IU/L
A/G [4]: 1
ALP [4]: 977 IU/L
ALT [4]: 42.4 IU/L
AST [4]: 68.8 IU/L
BUN [4]: 16.2 mg/dL
CRE [4]: 0.2 mg/dL
Ca [4]: 10.4 mg/dL
Cl [4]: 105.6 meq/L
DBIL [4]: 0 mg/dL
GLC [4]: 201.6 mg/dL
IP [4]: 6 mg/dL
K [4]: 3.7 meq/L
LDH [4]: 158.2 IU/L
Na [4]: 142.8 meq/L
PL [4]: 157.8 mg/dL
RALB [4]: 3.1 g/dL
TBIL [4]: 0.012 mg/dL
TC [4]: 80.2 mg/dL
TG [4]: 145.2 mg/dL
TP [4]: 6.1 g/dL
gamma-GTP [4]: 2 IU/L
TERMINAL_BW [5]: 229.5 g
APTT [5]: 21.1 s
Bas [5]: 0%
Eos [5]: 1%
Fbg [5]: 337.4 mg/dL
Hb [5]: 13.2 g/dL
Ht [5]: 40.8%
Lym [5]: 76.6%
MCH [5]: 19.9 pg
MCHC [5]: 32.5%
MCV [5]: 61.3 fL
Mono [5]: 2.2%
Neu [5]: 19.6%
PT [5]: 15.8 s
Plat [5]: 111.4 x10_4/uL
RBC [5]: 666.8 x10_4/ul
Ret [5]: 5.4%
WBC [5]: 88.4 x10_2/uL
KIDNEY_L [5]: 1 g
KIDNEY_R [5]: 1.1 g
KIDNEY_TOTAL [5]: 2.1 g
LIVER [5]: 10.3 g
A/G [5]: 1.3
ALP [5]: 1772.8 IU/L
ALT [5]: 54 IU/L
AST [5]: 75.6 IU/L
BUN [5]: 13.8 mg/dL
CRE [5]: 0.1 mg/dL
Ca [5]: 10.5 mg/dL
Cl [5]: 106.2 meq/L
DBIL [5]: 0 mg/dL
GLC [5]: 191.4 mg/dL
IP [5]: 7.4 mg/dL
K [5]: 4 meq/L
LDH [5]: 170 IU/L
Na [5]: 142.2 meq/L
PL [5]: 155.6 mg/dL
RALB [5]: 3.2 g/dL
TBIL [5]: 0.008 mg/dL
TC [5]: 86 mg/dL
TG [5]: 87.4 mg/dL
TP [5]: 5.6 g/dL
gamma-GTP [5]: 1.4 IU/L
TERMINAL_BW [6]: 249.3 g
TERMINAL_BW [7]: 299.7 g
TERMINAL_BW [8]: 372.4 g
APTT [6]: 22.2 s
Bas [6]: 0%
Eos [6]: 0.4%
Fbg [6]: 343.8 mg/dL
Hb [6]: 13.8 g/dL
Ht [6]: 41.9%
Lym [6]: 79%
MCH [6]: 20.1 pg
MCHC [6]: 32.9%
MCV [6]: 61 fL
Mono [6]: 2%
Neu [6]: 17%
PT [6]: 16.4 s
Plat [6]: 111.8 x10_4/uL
RBC [6]: 687.2 x10_4/ul
Ret [6]: 4%
WBC [6]: 107.9 x10_2/uL
APTT [7]: 21.7 s
Bas [7]: 0%
Eos [7]: 1%
Fbg [7]: 292.2 mg/dL
Hb [7]: 12.9 g/dL
Ht [7]: 39.9%
Lym [7]: 75.8%
MCH [7]: 20.5 pg
MCHC [7]: 32.4%
MCV [7]: 63.2 fL
Mono [7]: 2.4%
Neu [7]: 20.6%
PT [7]: 16.5 s
Plat [7]: 108.6 x10_4/uL
RBC [7]: 632.4 x10_4/ul
Ret [7]: 7.4%
WBC [7]: 62.3 x10_2/uL
APTT [8]: 23.2 s
Bas [8]: 0%
Eos [8]: 1%
Fbg [8]: 334.4 mg/dL
Hb [8]: 15.5 g/dL
Ht [8]: 45.2%
Lym [8]: 76%
MCH [8]: 19.1 pg
MCHC [8]: 34.3%
MCV [8]: 55.6 fL
Mono [8]: 2.4%
Neu [8]: 19.4%
PT [8]: 16.1 s
Plat [8]: 101.2 x10_4/uL
RBC [8]: 813.6 x10_4/ul
Ret [8]: 2.4%
WBC [8]: 104.8 x10_2/uL
KIDNEY_L [6]: 1.1 g
KIDNEY_R [6]: 1.1 g
KIDNEY_TOTAL [6]: 2.3 g
KIDNEY_L [7]: 1.3 g
KIDNEY_R [7]: 1.3 g
KIDNEY_TOTAL [7]: 2.6 g
KIDNEY_L [8]: 1.5 g
KIDNEY_R [8]: 1.5 g
KIDNEY_TOTAL [8]: 3 g
LIVER [6]: 11.5 g
LIVER [7]: 13.9 g
LIVER [8]: 16.7 g
A/G [6]: 1.2
ALP [6]: 1505.6 IU/L
ALT [6]: 50.2 IU/L
AST [6]: 76 IU/L
BUN [6]: 18 mg/dL
CRE [6]: 0.2 mg/dL
Ca [6]: 10.9 mg/dL
Cl [6]: 104.6 meq/L
DBIL [6]: 0 mg/dL
GLC [6]: 180.6 mg/dL
IP [6]: 7.2 mg/dL
K [6]: 4.2 meq/L
LDH [6]: 130.4 IU/L
Na [6]: 143 meq/L
PL [6]: 168.4 mg/dL
RALB [6]: 3.1 g/dL
TBIL [6]: 0.004 mg/dL
TC [6]: 85.6 mg/dL
TG [6]: 138.2 mg/dL
TP [6]: 5.7 g/dL
gamma-GTP [6]: 1.2 IU/L
A/G [7]: 1.1
ALP [7]: 1631.8 IU/L
ALT [7]: 70.2 IU/L
AST [7]: 97.6 IU/L
BUN [7]: 19.4 mg/dL
CRE [7]: 0.2 mg/dL
Ca [7]: 10.4 mg/dL
Cl [7]: 105.8 meq/L
DBIL [7]: 0 mg/dL
GLC [7]: 185 mg/dL
IP [7]: 7.1 mg/dL
K [7]: 4.4 meq/L
LDH [7]: 185.4 IU/L
Na [7]: 141 meq/L
PL [7]: 182.6 mg/dL
RALB [7]: 3.1 g/dL
TBIL [7]: 0 mg/dL
TC [7]: 88 mg/dL
TG [7]: 186.8 mg/dL
TP [7]: 5.9 g/dL
gamma-GTP [7]: 2.2 IU/L
A/G [8]: 1.1
ALP [8]: 1359 IU/L
ALT [8]: 43.6 IU/L
AST [8]: 70 IU/L
BUN [8]: 18.2 mg/dL
CRE [8]: 0.2 mg/dL
Ca [8]: 10.5 mg/dL
Cl [8]: 104.2 meq/L
DBIL [8]: 0 mg/dL
GLC [8]: 183.8 mg/dL
IP [8]: 6.6 mg/dL
K [8]: 4.3 meq/L
LDH [8]: 144.6 IU/L
Na [8]: 142.2 meq/L
PL [8]: 180.4 mg/dL
RALB [8]: 3.1 g/dL
TBIL [8]: 0.01 mg/dL
TC [8]: 91.4 mg/dL
TG [8]: 162.6 mg/dL
TP [8]: 6.1 g/dL
gamma-GTP [8]: 1.8 IU/L
